In PMC6403222, “Identification of a novel class of RIP1/RIP3 dual inhibitors that impede cell death and inflammation in mouse abdominal aortic aneurysm models” (Cell Death & Disease, 2019):

Assays:
EPHB6 [1] = target: T1, EPHB6 (Homo sapiens, UniProt O15197); assay: KINOMEscan competition binding, single concentration […]; conditions: read-out: % of control at 100 nM
KIT [2] = target: T2, KIT (Homo sapiens, UniProt P10721); assay: as above; conditions: read-out: % of control at 100 nM
RIP1 [3] = target: T3, RIP1 (Homo sapiens, UniProt Q13546); assay: KINOMEscan competition binding Kd; also ADP-Glo kinase inhibition
T3 construct: gene RIPK1; kinase domain
T3 sequence (Q13546 1-294 limits assumed): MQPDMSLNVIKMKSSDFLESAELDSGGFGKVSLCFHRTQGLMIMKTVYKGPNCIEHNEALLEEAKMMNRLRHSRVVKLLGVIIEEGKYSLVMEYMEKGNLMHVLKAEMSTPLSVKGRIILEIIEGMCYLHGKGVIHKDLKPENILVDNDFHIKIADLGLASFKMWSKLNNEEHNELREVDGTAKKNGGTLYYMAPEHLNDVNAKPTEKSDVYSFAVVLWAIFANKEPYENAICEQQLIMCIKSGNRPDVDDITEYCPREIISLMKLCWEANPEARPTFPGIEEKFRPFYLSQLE

[4] = target: T4, ABL1(T315I)-nonphosphorylated (Homo sapiens, UniProt P00519, T315I); assay: biochemical; design: KINOMEscan competition binding assay (DiscoveRx), per cent of control at 100 nM; conditions: competition binding, per cent of DMSO control; read-out: Percent Control
T4 construct: nonphosphorylated
Protocol: (§1) The selectivity of GSK’074 was evaluated using KINOMEscan™ profiling service (DiscoveRx Corporation, Fremont, CA). In brief, an in vitro competition binding assay was used to evaluate GSK’074 specificity at a concentration of 100 nM against 468 human kinases including 403 non-mutant kinases and 65 mutant kinases, as described previously[33],[50]. KINOMEscan™ was also used to determine binding constants (Kd) for GSK’074 against RIP1 and RIP3. In brief, an 11-point threefold serial dilution of GSK’074 was prepared in 100% DMSO at 100× final test concentration and subsequently diluted to 1× in the assay buffer. Kds were calculated with a standard dose-response curve using the Hill equation. Curves were fitted using a non-linear least square fit with the Levenberg–Marquardt algorithm. Next, we investigated the selectivity profile of GSK’074 against a panel of 468 kinases, including 403 non-mutant kinases using the KINOMEscan™ profiling service. […] KIT, MEK5, CSF1R, or EPHB6 had no established roles in cell death and their expression levels in SMCs, with the exception of MEK5, were negligible (Supplementary Figure 3).  Fig. 6 Selectivity profile of GSK’074. Binding of GSK’074 (100 nM) against 468 human kinases (403 non-mutant kinases, 65 mutant kinases) was assessed by DiscoveRx KINOMEscan™. a Selectivity scores of GSK’074. Selectivity score was defined as the number of non-mutant kinases bound to GSK’074 <35% of control (S(35)), 10% of control (S(10)), or 1% of control (S(1)). b TREEspot map of kinases potentially targeted by GSK’074.

[5] = target: T5, ABL1(T315I)-phosphorylated (Homo sapiens, UniProt P00519, T315I); assay: biochemical; design: KINOMEscan competition binding assay (DiscoveRx), per cent of control at 100 nM; conditions: competition binding, per cent of DMSO control; read-out: Percent Control
T5 construct: phosphorylated
Protocol: as §1

CSF1R [6] = target: T6, CSF1R (Homo sapiens, UniProt P07333); assay: biochemical; design: KINOMEscan competition binding assay (DiscoveRx), per cent of control at 100 nM; conditions: competition binding, per cent of DMSO control; read-out: Percent Control
T6 sequence (P07333 20-972): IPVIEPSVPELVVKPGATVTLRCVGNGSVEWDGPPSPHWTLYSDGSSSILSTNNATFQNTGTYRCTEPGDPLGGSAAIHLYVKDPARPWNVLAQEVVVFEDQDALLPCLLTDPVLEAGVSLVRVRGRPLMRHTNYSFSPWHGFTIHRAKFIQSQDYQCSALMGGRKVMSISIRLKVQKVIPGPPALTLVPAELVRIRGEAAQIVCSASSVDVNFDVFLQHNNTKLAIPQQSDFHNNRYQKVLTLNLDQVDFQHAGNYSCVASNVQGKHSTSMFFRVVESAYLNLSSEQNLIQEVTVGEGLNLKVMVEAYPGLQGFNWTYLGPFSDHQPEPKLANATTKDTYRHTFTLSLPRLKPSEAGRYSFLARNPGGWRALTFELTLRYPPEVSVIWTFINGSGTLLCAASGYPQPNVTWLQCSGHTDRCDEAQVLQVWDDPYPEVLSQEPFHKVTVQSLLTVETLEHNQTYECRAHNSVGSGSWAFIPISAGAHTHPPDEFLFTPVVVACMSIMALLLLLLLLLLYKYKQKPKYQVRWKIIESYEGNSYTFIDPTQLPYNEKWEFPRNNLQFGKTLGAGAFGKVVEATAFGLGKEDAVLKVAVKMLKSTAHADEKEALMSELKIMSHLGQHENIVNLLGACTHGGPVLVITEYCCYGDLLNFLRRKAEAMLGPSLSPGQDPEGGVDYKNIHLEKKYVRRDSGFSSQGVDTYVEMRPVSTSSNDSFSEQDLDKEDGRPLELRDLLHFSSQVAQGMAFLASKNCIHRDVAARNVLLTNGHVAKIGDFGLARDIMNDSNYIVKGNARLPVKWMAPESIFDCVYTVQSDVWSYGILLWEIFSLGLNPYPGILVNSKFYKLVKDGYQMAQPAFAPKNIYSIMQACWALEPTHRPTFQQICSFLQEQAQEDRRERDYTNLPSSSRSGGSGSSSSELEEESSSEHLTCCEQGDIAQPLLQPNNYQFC
Protocol: as §1

[7] = target: T7, ABL1(Q252H)-nonphosphorylated (Homo sapiens, UniProt P00519, Q252H); assay: biochemical; design: KINOMEscan competition binding assay (DiscoveRx), per cent of control at 100 nM; conditions: competition binding, per cent of DMSO control; read-out: Percent Control
T7 construct: nonphosphorylated
Protocol: as §1

EPHB6 [8] = target: T1, EPHB6; assay: biochemical; design: KINOMEscan competition binding assay (DiscoveRx), per cent of control at 100 nM; conditions: competition binding, per cent of DMSO control; read-out: Percent Control
Protocol: as §1

FLT3(K663Q) = FLT3(K663Q) (Homo sapiens, UniProt P36888, K663Q); assay: biochemical; design: KINOMEscan competition binding assay (DiscoveRx), per cent of control at 100 nM; conditions: competition binding, per cent of DMSO control; read-out: Percent Control
Protocol: as §1

FLT3 = FLT3 (Homo sapiens, UniProt P36888); assay: biochemical; design: KINOMEscan competition binding assay (DiscoveRx), per cent of control at 100 nM; conditions: competition binding, per cent of DMSO control; read-out: Percent Control
Protocol: as §1

KIT(L576P) = KIT(L576P) (Homo sapiens, UniProt P10721, L576P); assay: biochemical; design: KINOMEscan competition binding assay (DiscoveRx), per cent of control at 100 nM; conditions: competition binding, per cent of DMSO control; read-out: Percent Control
Protocol: as §1

MAP4K5 = MAP4K5 (Homo sapiens, UniProt Q9Y4K4); assay: biochemical; design: KINOMEscan competition binding assay (DiscoveRx), per cent of control at 100 nM; conditions: competition binding, per cent of DMSO control; read-out: Percent Control
Protocol: as §1

[9] = target: T8, ABL1(E255K)-phosphorylated (Homo sapiens, UniProt P00519, E255K); assay: biochemical; design: KINOMEscan competition binding assay (DiscoveRx), per cent of control at 100 nM; conditions: competition binding, per cent of DMSO control; read-out: Percent Control
T8 construct: phosphorylated
Protocol: as §1

ABL1-phosphorylated = target: T9, ABL1-phosphorylated (Homo sapiens, UniProt P00519); assay: biochemical; design: KINOMEscan competition binding assay (DiscoveRx), per cent of control at 100 nM; conditions: competition binding, per cent of DMSO control; read-out: Percent Control
T9 construct: phosphorylated
Protocol: as §1

LOK = target: T10, LOK (Homo sapiens, UniProt O94804); assay: biochemical; design: KINOMEscan competition binding assay (DiscoveRx), per cent of control at 100 nM; conditions: competition binding, per cent of DMSO control; read-out: Percent Control
T10 construct: gene STK10
Protocol: as §1

MEK5 [10] = target: T11, MEK5 (Homo sapiens, UniProt Q13163); assay: biochemical; design: KINOMEscan competition binding assay (DiscoveRx), per cent of control at 100 nM; conditions: competition binding, per cent of DMSO control; read-out: Percent Control
T11 construct: gene MAP2K5
T11 sequence (Q13163 whole entry): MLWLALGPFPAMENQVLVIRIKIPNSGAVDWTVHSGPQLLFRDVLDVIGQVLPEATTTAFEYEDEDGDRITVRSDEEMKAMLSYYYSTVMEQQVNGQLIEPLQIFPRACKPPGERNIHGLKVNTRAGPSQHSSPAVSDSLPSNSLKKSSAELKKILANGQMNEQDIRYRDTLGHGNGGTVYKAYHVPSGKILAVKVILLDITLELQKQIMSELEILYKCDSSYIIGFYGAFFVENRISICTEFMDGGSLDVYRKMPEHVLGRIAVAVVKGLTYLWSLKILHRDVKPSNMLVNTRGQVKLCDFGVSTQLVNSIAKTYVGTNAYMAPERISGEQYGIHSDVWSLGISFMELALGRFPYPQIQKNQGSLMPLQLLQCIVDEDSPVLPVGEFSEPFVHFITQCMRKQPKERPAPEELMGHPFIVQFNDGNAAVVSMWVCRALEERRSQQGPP
Protocol: as §1

AURKC = AURKC (Homo sapiens, UniProt Q9UQB9); assay: biochemical; design: KINOMEscan competition binding assay (DiscoveRx), per cent of control at 100 nM; conditions: competition binding, per cent of DMSO control; read-out: Percent Control
Sequence of AURKC (Q9UQB9 whole entry): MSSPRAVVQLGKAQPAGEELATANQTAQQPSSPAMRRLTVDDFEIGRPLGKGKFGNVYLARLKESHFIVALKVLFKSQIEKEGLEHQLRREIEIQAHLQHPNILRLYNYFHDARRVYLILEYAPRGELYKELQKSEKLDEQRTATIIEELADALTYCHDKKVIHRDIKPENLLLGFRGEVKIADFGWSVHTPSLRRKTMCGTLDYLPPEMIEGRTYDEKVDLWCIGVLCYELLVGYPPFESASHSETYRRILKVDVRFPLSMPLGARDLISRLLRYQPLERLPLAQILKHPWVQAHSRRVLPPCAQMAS
Protocol: as §1

PRKD2 = PRKD2 (Homo sapiens, UniProt Q9BZL6); assay: biochemical; design: KINOMEscan competition binding assay (DiscoveRx), per cent of control at 100 nM; conditions: competition binding, per cent of DMSO control; read-out: Percent Control
Protocol: as §1

ABL1-nonphosphorylated = target: T12, ABL1-nonphosphorylated (Homo sapiens, UniProt P00519); assay: biochemical; design: KINOMEscan competition binding assay (DiscoveRx), per cent of control at 100 nM; conditions: competition binding, per cent of DMSO control; read-out: Percent Control
T12 construct: nonphosphorylated
Protocol: as §1

RIP1 [11] = target: T3, RIP1; assay: biochemical; design: KINOMEscan competition binding assay (DiscoveRx), per cent of control at 100 nM; conditions: competition binding, per cent of DMSO control; read-out: Percent Control
Protocol: as §1

KIT [12] = target: T2, KIT; assay: biochemical; design: KINOMEscan competition binding assay (DiscoveRx), per cent of control at 100 nM; conditions: competition binding, per cent of DMSO control; read-out: Percent Control
Protocol: as §1

AURKB = AURKB (Homo sapiens, UniProt Q96GD4); assay: biochemical; design: KINOMEscan competition binding assay (DiscoveRx), per cent of control at 100 nM; conditions: competition binding, per cent of DMSO control; read-out: Percent Control
Protocol: as §1

[13] = target: T13, ABL1(H396P)-nonphosphorylated (Homo sapiens, UniProt P00519, H396P); assay: biochemical; design: KINOMEscan competition binding assay (DiscoveRx), per cent of control at 100 nM; conditions: competition binding, per cent of DMSO control; read-out: Percent Control
T13 construct: nonphosphorylated
Protocol: as §1

PDGFRA = PDGFRA (Homo sapiens, UniProt P16234); assay: biochemical; design: KINOMEscan competition binding assay (DiscoveRx), per cent of control at 100 nM; conditions: competition binding, per cent of DMSO control; read-out: Percent Control
Protocol: as §1

MST1 = target: T14, MST1 (Homo sapiens, UniProt Q13043); assay: biochemical; design: KINOMEscan competition binding assay (DiscoveRx), per cent of control at 100 nM; conditions: competition binding, per cent of DMSO control; read-out: Percent Control
T14 construct: gene STK4
Protocol: as §1

RIPK2 = RIPK2 (Homo sapiens, UniProt O43353); assay: biochemical; design: KINOMEscan competition binding assay (DiscoveRx), per cent of control at 100 nM; conditions: competition binding, per cent of DMSO control; read-out: Percent Control
Protocol: as §1

HPK1 = target: T15, HPK1 (Homo sapiens, UniProt Q92918); assay: biochemical; design: KINOMEscan competition binding assay (DiscoveRx), per cent of control at 100 nM; conditions: competition binding, per cent of DMSO control; read-out: Percent Control
T15 construct: gene MAP4K1
T15 sequence (Q92918 whole entry): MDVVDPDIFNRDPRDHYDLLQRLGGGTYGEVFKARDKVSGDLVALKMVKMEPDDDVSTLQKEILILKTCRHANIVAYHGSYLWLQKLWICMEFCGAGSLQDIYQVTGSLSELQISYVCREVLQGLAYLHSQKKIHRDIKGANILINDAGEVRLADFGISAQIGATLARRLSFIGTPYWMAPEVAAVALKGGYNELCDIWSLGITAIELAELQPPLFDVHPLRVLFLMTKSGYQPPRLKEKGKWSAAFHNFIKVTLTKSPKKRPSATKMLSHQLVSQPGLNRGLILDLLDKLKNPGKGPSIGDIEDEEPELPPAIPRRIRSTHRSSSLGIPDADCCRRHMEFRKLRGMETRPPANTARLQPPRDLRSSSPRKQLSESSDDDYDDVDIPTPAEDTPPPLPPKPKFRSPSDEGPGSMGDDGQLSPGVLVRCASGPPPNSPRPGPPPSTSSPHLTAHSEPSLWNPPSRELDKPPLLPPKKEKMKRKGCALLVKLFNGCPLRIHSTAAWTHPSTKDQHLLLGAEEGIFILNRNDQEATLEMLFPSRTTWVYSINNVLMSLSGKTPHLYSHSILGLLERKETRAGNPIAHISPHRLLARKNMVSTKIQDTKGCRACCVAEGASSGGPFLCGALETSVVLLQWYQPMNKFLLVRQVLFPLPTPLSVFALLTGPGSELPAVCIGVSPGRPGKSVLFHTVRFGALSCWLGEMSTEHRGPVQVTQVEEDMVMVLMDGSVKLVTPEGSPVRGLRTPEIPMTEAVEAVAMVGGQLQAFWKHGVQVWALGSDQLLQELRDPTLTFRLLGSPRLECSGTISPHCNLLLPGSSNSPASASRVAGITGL
Protocol: as §1

KIT(V559D) = KIT(V559D) (Homo sapiens, UniProt P10721, V559D); assay: biochemical; design: KINOMEscan competition binding assay (DiscoveRx), per cent of control at 100 nM; conditions: competition binding, per cent of DMSO control; read-out: Percent Control
Protocol: as §1

PDGFRB = PDGFRB (Homo sapiens, UniProt P09619); assay: biochemical; design: KINOMEscan competition binding assay (DiscoveRx), per cent of control at 100 nM; conditions: competition binding, per cent of DMSO control; read-out: Percent Control
Protocol: as §1

CSF1R [14] = target: T6, CSF1R; assay: KINOMEscan competition binding, single concentration […]; conditions: read-out: % of control at 100 nM
RIP3 = target: T16, RIP3 (Homo sapiens, UniProt Q9Y572); assay: KINOMEscan competition binding Kd; also ADP-Glo kinase inhibition
T16 construct: gene RIPK3; kinase domain
T16 sequence (Q9Y572 21-287 limits assumed): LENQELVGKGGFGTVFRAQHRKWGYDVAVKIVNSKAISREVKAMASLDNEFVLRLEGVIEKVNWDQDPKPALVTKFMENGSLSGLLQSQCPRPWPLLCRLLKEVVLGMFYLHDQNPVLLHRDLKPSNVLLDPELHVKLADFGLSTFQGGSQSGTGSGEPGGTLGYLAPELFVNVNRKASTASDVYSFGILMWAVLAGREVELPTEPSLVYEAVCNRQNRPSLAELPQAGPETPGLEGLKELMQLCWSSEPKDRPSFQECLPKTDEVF

MEK5 [15] = target: T11, MEK5; assay: KINOMEscan competition binding, single concentration […]; conditions: read-out: % of control at 100 nM

T1 sequence (O15197 32-1021): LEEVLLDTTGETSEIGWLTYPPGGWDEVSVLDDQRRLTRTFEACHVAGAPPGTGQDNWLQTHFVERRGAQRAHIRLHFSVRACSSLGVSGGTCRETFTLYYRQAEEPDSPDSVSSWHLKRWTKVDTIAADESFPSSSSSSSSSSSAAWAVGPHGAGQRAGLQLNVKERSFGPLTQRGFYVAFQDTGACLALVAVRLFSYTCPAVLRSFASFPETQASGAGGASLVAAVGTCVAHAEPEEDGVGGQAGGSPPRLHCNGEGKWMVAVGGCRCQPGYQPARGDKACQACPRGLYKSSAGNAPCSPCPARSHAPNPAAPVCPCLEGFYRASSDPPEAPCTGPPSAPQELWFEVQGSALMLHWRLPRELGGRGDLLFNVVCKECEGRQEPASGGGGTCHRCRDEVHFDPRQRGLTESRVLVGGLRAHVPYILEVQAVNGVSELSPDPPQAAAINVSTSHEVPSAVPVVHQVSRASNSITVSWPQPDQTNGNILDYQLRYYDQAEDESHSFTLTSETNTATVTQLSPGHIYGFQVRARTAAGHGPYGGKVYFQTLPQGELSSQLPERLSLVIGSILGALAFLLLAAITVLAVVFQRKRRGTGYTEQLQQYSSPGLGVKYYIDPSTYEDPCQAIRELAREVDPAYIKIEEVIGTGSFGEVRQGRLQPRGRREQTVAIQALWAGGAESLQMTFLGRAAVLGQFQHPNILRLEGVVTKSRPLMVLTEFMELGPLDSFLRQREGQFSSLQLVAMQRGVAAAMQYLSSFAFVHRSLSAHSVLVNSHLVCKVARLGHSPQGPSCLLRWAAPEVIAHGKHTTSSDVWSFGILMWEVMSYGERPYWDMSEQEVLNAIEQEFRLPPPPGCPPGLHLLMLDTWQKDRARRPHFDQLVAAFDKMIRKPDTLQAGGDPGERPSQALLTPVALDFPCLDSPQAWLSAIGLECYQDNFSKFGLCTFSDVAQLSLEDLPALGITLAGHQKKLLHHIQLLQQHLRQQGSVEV
T2 sequence (P10721 26-976): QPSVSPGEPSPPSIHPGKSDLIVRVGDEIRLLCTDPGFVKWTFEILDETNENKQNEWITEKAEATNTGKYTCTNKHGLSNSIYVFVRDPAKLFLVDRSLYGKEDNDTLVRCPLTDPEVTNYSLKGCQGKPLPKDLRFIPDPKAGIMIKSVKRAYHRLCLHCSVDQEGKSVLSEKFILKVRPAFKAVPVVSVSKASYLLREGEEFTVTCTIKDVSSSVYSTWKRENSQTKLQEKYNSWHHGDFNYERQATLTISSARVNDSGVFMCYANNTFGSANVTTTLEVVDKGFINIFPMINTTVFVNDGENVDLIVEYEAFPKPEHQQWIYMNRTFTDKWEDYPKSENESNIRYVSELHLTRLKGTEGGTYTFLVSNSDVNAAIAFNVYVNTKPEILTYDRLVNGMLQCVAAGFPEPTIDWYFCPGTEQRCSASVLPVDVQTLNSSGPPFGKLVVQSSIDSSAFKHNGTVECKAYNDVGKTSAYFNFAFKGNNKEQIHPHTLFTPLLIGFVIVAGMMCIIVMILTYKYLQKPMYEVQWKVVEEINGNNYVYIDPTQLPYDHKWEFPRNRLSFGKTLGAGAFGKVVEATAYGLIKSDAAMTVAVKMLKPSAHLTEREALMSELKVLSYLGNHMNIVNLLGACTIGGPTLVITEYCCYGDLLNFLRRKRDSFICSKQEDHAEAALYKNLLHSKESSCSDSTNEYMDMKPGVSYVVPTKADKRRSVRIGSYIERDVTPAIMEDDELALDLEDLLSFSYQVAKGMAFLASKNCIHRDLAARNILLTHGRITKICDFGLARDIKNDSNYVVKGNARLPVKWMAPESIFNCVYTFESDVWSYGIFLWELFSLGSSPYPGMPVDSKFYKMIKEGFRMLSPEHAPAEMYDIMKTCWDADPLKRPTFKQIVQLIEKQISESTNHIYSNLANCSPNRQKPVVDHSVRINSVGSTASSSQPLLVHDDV

remaining binding at 0.1 µM (EPHB6 [1]): < 1% | remaining binding at 0.1 µM (KIT [2]): < 1% | Kd (RIP1 [3]): 12 nM | remaining binding at 0.1 µM [4]: 0.3% | remaining binding at 0.1 µM [5]: 19% | remaining binding at 0.1 µM (CSF1R [6]): 0.5% | remaining binding at 0.1 µM [7]: 6.1% | remaining binding at 0.1 µM (EPHB6 [8]): 0.5% | remaining binding at 0.1 µM (FLT3(K663Q)): 30% | remaining binding at 0.1 µM (FLT3): 19% | remaining binding at 0.1 µM (KIT(L576P)): 0% | remaining binding at 0.1 µM (MAP4K5): 5.5% | remaining binding at 0.1 µM [9]: 24% | remaining binding at 0.1 µM (ABL1-phosphorylated): 25% | remaining binding at 0.1 µM (LOK): 30% | remaining binding at 0.1 µM (MEK5 [10]): 0.1% | remaining binding at 0.1 µM (AURKC): 19% | remaining binding at 0.1 µM (PRKD2): 32% | remaining binding at 0.1 µM (ABL1-nonphosphorylated): 3.3% | remaining binding at 0.1 µM (RIP1 [11]): 0% | remaining binding at 0.1 µM (KIT [12]): 0.35% | remaining binding at 0.1 µM (AURKB): 9.3% | remaining binding at 0.1 µM [13]: 2.2% | remaining binding at 0.1 µM (PDGFRA): 13% | remaining binding at 0.1 µM (MST1): 13% | remaining binding at 0.1 µM (RIPK2): 12% | remaining binding at 0.1 µM (HPK1): 30% | remaining binding at 0.1 µM (KIT(V559D)): 0.05% | remaining binding at 0.1 µM (PDGFRB): 1.3% | remaining binding at 0.1 µM (CSF1R [14]): < 1% | Kd (RIP3): 130 nM | remaining binding at 0.1 µM (MEK5 [15]): < 1%
SMILES: Cn1cc(-c2cnc(N)c3c(-c4ccc5c(c4)CCN5C(=O)Cc4ccccc4)csc23)cn1 [GSK'074, GSK2593074A]
